Where two headings read alike, the source gives them in different places.
Assays:
[1] = test system: HT29 cells; test: TSZ-induced HT29 cell necroptosis model (CCK8); format: cell-based; settings: Homo sapiens, HT-29
Experimental: Cell necroptosis protection assays were performed in 96-well cell culture plates. Cells were plated in each well and cultured at 37 °C overnight. […] The cell survival rate was determined using a CCK8 cell viability assay kit and CLARIOstar (v5.61). […] All experiments were performed at least two times, and each EC50 value was expressed as mean ± standard deviation (SD).

[2] = molecular target: panel of human kinases (kinase named in endpoint) (Homo sapiens, UniProt Q9UM73); test: Kinase inhibitory activity profiling of RI-962@10 µM (406 kinases, Eurofins); format: biochemical; settings: 10 µM; read-out: Activity (%), ALK(h)
Experimental: (§1) In vitro kinase activity assays were conducted through the Kinase Profiling Services provided by Eurofins (Eurofins, France). The protocol for the RIPK1 assay is briefly described as follows (Protocols for other kinases are very similar and can be found in http://www.eurofins.com/pharmadiscovery). RIPK1 kinase was incubated with the test compound in assay buffer containing 8 mM MOPS (pH 7.0), 0.2 mM EDTA, 250 μM […], 10 mM magnesium acetate, and 10 μM [γ-33P]-ATP for 15 min at room temperature. The reaction was initiated by the addition of the Mg/ATP mixture. After incubation for 40 min at room temperature, and the reaction was stopped by the addition of 3% phosphoric acid. A 10 μL portion of the reaction mixture was then spotted onto a P30 filter mat and washed four times for 4 min in 0.425% phosphoric acid and once in methanol prior to drying and scintillation counting.

[3] = molecular target: panel of human kinases (kinase named in endpoint) (Homo sapiens, UniProt P08069); test: as above; format: biochemical; settings: 10 µM
Sequence of panel of human kinases (kinase named in endpoint) (Homo sapiens, UniProt P08069) (P08069 31-1367): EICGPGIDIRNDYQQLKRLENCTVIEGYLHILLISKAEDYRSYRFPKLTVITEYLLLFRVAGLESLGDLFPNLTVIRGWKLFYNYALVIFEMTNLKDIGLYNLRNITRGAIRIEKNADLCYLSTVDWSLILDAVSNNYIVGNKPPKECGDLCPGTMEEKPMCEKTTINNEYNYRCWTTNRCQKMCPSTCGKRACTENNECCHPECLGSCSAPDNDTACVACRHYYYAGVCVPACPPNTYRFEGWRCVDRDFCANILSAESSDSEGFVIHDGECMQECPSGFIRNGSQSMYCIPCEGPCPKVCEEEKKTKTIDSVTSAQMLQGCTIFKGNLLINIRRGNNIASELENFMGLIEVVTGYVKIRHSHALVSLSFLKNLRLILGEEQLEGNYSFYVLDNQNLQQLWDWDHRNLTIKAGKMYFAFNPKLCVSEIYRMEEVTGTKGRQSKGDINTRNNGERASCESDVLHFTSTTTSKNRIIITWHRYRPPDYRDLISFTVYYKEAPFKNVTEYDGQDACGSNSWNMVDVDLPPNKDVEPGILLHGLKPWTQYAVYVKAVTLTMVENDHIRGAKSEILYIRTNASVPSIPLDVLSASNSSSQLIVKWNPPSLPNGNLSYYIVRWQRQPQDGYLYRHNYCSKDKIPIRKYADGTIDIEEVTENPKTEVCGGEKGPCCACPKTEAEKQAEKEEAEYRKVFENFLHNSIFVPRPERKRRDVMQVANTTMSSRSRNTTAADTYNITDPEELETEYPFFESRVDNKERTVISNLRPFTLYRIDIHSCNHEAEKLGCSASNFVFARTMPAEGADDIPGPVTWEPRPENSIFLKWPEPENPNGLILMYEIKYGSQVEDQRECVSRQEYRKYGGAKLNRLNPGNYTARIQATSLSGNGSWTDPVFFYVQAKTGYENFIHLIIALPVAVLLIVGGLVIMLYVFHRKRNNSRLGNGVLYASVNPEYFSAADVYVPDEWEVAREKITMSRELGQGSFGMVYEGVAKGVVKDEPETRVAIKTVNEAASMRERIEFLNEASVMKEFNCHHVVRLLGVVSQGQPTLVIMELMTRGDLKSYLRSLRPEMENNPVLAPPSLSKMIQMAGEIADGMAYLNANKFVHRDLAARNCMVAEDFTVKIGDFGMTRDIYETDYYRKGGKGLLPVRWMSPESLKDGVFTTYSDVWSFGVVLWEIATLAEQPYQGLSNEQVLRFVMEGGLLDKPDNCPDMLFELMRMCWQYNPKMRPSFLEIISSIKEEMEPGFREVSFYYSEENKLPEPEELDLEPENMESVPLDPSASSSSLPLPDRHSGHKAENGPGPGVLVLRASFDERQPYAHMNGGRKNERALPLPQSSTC
Experimental: as §1

[4] = molecular target: panel of human kinases (kinase named in endpoint) (Homo sapiens, UniProt Q96SB4); test: as above; format: biochemical; settings: 10 µM; read-out: Activity (%), SRPK1(h)
Experimental: as §1

[5] = molecular target: panel of human kinases (kinase named in endpoint) (Homo sapiens, UniProt P22455); test: as above; format: biochemical; settings: 10 µM; read-out: Activity (%), FGFR4(h)
Sequence of panel of human kinases (kinase named in endpoint) (Homo sapiens, UniProt P22455) (P22455 22-802): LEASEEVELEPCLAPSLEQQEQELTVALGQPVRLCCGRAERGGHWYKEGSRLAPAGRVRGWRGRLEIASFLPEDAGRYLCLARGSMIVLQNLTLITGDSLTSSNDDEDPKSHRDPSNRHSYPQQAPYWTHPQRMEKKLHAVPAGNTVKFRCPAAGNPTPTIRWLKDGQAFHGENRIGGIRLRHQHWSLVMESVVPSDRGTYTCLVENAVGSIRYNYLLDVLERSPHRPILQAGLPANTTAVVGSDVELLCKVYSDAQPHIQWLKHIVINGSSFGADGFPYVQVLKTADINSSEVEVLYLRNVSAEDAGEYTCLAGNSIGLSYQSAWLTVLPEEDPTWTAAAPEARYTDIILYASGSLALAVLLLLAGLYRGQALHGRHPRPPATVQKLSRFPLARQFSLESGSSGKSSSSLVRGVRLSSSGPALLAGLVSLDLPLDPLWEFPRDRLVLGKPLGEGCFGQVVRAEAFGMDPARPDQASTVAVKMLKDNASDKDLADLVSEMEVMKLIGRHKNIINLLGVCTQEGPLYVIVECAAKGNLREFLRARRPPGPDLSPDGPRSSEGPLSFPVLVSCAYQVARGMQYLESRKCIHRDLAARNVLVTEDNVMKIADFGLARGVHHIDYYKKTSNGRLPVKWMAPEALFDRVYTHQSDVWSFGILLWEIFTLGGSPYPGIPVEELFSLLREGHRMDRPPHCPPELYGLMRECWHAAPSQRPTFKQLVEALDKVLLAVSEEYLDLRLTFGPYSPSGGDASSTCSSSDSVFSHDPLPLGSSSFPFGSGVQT
Experimental: as §1

[6] = molecular target: panel of human kinases (kinase named in endpoint) (Homo sapiens, UniProt P43403); test: as above; format: biochemical; settings: 10 µM; read-out: Activity (%), ZAP-70(h)
Experimental: as §1

[7] = molecular target: panel of human kinases (kinase named in endpoint) (Homo sapiens, UniProt Q9Y2K2); test: as above; format: biochemical; settings: 10 µM; read-out: Activity (%), SIK3(h)
Sequence of panel of human kinases (kinase named in endpoint) (Homo sapiens, UniProt Q9Y2K2) (Q9Y2K2 whole entry): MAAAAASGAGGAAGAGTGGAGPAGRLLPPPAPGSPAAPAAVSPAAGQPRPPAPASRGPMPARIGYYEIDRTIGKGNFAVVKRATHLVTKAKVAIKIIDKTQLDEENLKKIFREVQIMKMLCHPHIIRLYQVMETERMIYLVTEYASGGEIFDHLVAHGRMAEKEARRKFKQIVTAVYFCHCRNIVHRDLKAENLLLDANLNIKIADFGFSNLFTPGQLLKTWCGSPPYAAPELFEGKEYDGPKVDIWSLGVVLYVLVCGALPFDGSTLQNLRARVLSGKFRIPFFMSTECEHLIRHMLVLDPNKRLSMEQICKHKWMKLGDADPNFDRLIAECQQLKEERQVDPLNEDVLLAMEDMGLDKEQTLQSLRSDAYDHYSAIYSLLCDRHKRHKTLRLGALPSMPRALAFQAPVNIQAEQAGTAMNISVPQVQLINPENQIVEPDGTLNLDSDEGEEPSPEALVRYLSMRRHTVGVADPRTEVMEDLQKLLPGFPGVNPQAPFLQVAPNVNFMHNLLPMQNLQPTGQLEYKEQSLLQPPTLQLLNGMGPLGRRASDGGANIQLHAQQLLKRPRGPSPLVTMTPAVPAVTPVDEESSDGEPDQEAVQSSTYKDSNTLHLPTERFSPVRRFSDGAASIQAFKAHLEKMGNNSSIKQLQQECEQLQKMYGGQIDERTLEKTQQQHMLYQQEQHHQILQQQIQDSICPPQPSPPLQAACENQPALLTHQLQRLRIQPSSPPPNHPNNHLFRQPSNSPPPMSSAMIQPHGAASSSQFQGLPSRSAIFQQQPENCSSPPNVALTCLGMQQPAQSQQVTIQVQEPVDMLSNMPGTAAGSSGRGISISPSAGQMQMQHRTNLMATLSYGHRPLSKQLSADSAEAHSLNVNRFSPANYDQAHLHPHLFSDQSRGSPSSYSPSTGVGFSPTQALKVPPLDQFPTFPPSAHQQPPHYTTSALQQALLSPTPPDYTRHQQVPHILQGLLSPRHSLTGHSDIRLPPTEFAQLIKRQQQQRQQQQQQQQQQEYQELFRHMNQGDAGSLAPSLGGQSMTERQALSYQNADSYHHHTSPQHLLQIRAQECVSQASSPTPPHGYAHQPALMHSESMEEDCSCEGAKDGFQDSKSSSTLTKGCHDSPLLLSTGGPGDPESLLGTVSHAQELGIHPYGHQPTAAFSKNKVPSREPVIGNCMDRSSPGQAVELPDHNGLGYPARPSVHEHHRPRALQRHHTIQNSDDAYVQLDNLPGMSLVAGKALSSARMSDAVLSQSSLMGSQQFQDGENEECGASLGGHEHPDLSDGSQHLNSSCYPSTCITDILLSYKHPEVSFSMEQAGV
Experimental: as §1

[8] = molecular target: panel of human kinases (kinase named in endpoint) (Homo sapiens, UniProt P08581); test: as above; format: biochemical; settings: 10 µM; read-out: Activity (%), Met(h)
Experimental: as §1

[9] = molecular target: panel of human kinases (kinase named in endpoint) (Homo sapiens, UniProt Q5TCY1); test: as above; format: biochemical; settings: 10 µM; read-out: Activity (%), TTBK1(h)
Experimental: as §1

[10] = molecular target: panel of human kinases (kinase named in endpoint) (Homo sapiens, UniProt Q8IVW4); test: as above; format: biochemical; settings: 10 µM; read-out: Activity (%), CDKL3(h)
Experimental: as §1

[11] = molecular target: panel of human kinases (kinase named in endpoint) (Homo sapiens, UniProt P09769); test: as above; format: biochemical; settings: 10 µM; read-out: Activity (%), Fgr(h)
Sequence of panel of human kinases (kinase named in endpoint) (Homo sapiens, UniProt P09769) (P09769 whole entry): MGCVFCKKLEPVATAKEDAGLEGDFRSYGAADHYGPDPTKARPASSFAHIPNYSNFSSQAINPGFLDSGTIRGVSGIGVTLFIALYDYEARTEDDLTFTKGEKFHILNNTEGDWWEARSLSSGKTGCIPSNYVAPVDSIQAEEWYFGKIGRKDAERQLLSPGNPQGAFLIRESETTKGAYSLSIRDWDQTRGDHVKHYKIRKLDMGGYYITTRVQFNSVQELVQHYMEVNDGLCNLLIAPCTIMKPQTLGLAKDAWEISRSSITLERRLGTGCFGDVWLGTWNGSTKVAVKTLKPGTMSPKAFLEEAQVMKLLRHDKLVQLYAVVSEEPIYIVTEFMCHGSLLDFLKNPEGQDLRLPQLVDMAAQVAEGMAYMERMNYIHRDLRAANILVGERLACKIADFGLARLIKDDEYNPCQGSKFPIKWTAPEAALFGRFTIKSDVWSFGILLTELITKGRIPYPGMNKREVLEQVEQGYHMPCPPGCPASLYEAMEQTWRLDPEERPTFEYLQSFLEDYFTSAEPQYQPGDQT
Experimental: as §1

[12] = molecular target: panel of human kinases (kinase named in endpoint) (Homo sapiens, UniProt P51955); test: as above; format: biochemical; settings: 10 µM; read-out: Activity (%), NEK2(h)
Experimental: as §1

[13] = molecular target: panel of human kinases (kinase named in endpoint) (Homo sapiens, UniProt Q13523); test: as above; format: biochemical; settings: 10 µM; read-out: Activity (%), PRP4(h)
Experimental: as §1

[14] = molecular target: panel of human kinases (kinase named in endpoint) (Homo sapiens, UniProt Q86UE8); test: as above; format: biochemical; settings: 10 µM; read-out: Activity (%), TLK2(h)
Experimental: as §1

[15] = molecular target: panel of human kinases (kinase named in endpoint) (Homo sapiens, UniProt Q13315); test: as above; format: biochemical; settings: 10 µM; read-out: Activity (%), ATM(h)
Experimental: as §1

[16] = molecular target: panel of human kinases (kinase named in endpoint) (Homo sapiens, UniProt Q99759); test: as above; format: biochemical; settings: 10 µM; read-out: Activity (%), MEKK3(h)
Sequence of panel of human kinases (kinase named in endpoint) (Homo sapiens, UniProt Q99759) (Q99759 whole entry): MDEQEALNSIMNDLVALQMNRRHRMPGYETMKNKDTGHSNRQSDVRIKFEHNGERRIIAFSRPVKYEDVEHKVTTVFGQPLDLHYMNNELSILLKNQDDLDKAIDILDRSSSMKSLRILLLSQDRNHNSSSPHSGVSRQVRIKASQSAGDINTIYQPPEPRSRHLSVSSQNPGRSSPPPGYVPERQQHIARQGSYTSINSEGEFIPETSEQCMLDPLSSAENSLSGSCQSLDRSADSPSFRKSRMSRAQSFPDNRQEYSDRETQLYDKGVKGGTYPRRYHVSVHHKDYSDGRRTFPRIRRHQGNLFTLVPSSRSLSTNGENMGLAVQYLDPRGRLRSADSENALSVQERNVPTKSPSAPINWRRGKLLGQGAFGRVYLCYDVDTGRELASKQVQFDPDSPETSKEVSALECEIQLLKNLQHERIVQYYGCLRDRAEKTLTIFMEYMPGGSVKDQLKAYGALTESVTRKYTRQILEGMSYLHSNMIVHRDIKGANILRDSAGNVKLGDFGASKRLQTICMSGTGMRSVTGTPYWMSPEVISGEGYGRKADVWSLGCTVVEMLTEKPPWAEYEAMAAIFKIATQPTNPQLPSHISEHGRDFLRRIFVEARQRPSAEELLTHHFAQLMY
Experimental: as §1

[17] = molecular target: panel of human kinases (kinase named in endpoint) (Homo sapiens, UniProt P51957); test: as above; format: biochemical; settings: 10 µM; read-out: Activity (%), NEK4(h)
Experimental: as §1

[18] = molecular target: panel of human kinases (kinase named in endpoint) (Homo sapiens, UniProt P14616); test: as above; format: biochemical; settings: 10 µM; read-out: Activity (%), IRR(h)
Experimental: as §1

[19] = molecular target: panel of human kinases (kinase named in endpoint) (Homo sapiens, UniProt Q9Y6E0); test: as above; format: biochemical; settings: 10 µM; read-out: Activity (%), MST3(h)
Sequence of panel of human kinases (kinase named in endpoint) (Homo sapiens, UniProt Q9Y6E0) (Q9Y6E0 whole entry): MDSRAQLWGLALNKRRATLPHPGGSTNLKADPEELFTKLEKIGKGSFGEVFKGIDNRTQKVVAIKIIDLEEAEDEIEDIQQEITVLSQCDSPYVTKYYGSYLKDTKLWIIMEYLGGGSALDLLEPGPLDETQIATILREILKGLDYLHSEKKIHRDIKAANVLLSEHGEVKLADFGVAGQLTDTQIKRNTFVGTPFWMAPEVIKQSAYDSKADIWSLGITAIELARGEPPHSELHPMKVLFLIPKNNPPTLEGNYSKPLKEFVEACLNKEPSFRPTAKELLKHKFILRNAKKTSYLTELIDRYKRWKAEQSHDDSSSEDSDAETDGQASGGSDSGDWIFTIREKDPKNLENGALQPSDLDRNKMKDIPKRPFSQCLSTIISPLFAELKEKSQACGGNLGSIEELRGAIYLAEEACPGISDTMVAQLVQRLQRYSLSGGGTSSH
Experimental: as §1

[20] = molecular target: panel of human kinases (kinase named in endpoint) (Homo sapiens, UniProt Q16288); test: as above; format: biochemical; settings: 10 µM; read-out: Activity (%), TrkC(h)
Experimental: as §1

[21] = molecular target: panel of human kinases (kinase named in endpoint) (Homo sapiens, UniProt P37173); test: as above; format: biochemical; settings: 10 µM; read-out: Activity (%), TGFBR2(h)
Experimental: as §1

[22] = molecular target: panel of human kinases (kinase named in endpoint) (Homo sapiens, UniProt P42681); test: as above; format: biochemical; settings: 10 µM; read-out: Activity (%), Txk(h)
Experimental: as §1

[23] = molecular target: panel of human kinases (kinase named in endpoint) (Homo sapiens, UniProt P36896); test: as above; format: biochemical; settings: 10 µM; read-out: Activity (%), ALK4(h)
Experimental: as §1

Compound `CC(C)C(=O)Nc1nc2cc(-c3ccc4c(c3)c(C(=O)NC(C)c3ccccc3)cn4C)ccn2n1` (stereo not drawn) [RI-962] has a viability at 56 pM ([1]; 0.000056 μM) of 20.2%, a viability at 0.000169 µM ([1]; 0.000169 μM) of 21.7% and a viability at 0.000508 µM ([1]; 0.000508 μM) of 21.7%. For the same compound, the viability at 0.001524 µM ([1]; 0.001524 μM) was 23.4%, the viability at 0.004572 µM ([1]; 0.004572 μM) was 36.3% and the viability at 0.013717 µM ([1]; 0.013717 μM) was 78.8%. It also gave a viability at 0.041152 µM ([1]; 0.041152 μM) of 96.7%, a viability at 0.123457 µM ([1]; 0.123457 μM) of 109% and a viability at 0.37037 µM ([1]; 0.370370 μM) of 110%. The viability at 1.11111 µM ([1]; 1.111111 μM) was 107%, the viability at 3.33333 µM ([1]; 3.333333 μM) was 109% and the viability at 10 µM ([1]; 10.000000 μM) was 109%. For the same compound, the EC50 ([1]; HT29 treated with TSZ, 24 h, read-out: EC50) was 10 nM, the activity at 10 µM [2] was 68% and the activity at 10 µM ([3]; read-out: Activity (%), IGF-1R(h)) was 94%. It also gave an activity at 10 µM ([3]; read-out: Activity (%), IGF-1R(h), activated) of 92%, an activity at 10 µM [4] of 102% and an activity at 10 µM [5] of 85%. It also gave an activity at 10 µM [6] of 95%, an activity at 10 µM [7] of 100% and an activity at 10 µM [8] of 102%. It also gave an activity at 10 µM [9] of 92%, an activity at 10 µM [10] of 84% and an activity at 10 µM [11] of 96%. For the same compound, the activity at 10 µM [12] was 100%, the activity at 10 µM [13] was 88% and the activity at 10 µM [14] was 78%. It also gave an activity at 10 µM [15] of 85%, an activity at 10 µM [16] of 93% and an activity at 10 µM [17] of 104%. For the same compound, the activity at 10 µM [18] was 100%, the activity at 10 µM [19] was 149% and the activity at 10 µM [20] was 56%. The activity at 10 µM [21] was 94%, the activity at 10 µM [22] was 94% and the activity at 10 µM [23] was 90%.
